#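 Five compound concentrations were applied to cells in 96-well plates for 48 hours; endpoints were derived by simple linear interpolation of the resulting dose-response curve. Here, GI50 denotes the concentration required for 50% inhibition of growth. TGI: concentration producing complete growth inhibition.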
# Columns and labels:
# Experiment in all cases: NCI-60 cell line screen, 48 h
# UACC-62 melanoma = tested on: UACC-62 melanoma
# RXF 393 renal = tested on: RXF 393 renal
# HT29 colon = tested on: HT29 colon
# CCRF-CEM leukemia = tested on: CCRF-CEM leukemia
# TK-10 renal = tested on: TK-10 renal
# SN12C renal = tested on: SN12C renal
# CAKI-1 renal = tested on: CAKI-1 renal
# NCI-H522 lung = tested on: NCI-H522 lung
SMILES,GI50 (UACC-62 melanoma),TGI (UACC-62 melanoma),GI50 (RXF 393 renal),TGI (RXF 393 renal),GI50 (HT29 colon),TGI (HT29 colon),GI50 (CCRF-CEM leukemia),TGI (CCRF-CEM leukemia),GI50 (TK-10 renal),TGI (TK-10 renal),GI50 (SN12C renal),TGI (SN12C renal),GI50 (CAKI-1 renal),TGI (CAKI-1 renal),GI50 (NCI-H522 lung),TGI (NCI-H522 lung)
Cc1ccnc2c1NC(=O)c1cccnc1N2C1CC1,> 100 µM,> 100 µM,> 100 µM,> 100 µM,> 100 µM,> 100 µM,> 100 µM,> 100 µM,> 100 µM,> 100 µM,> 100 µM,> 100 µM,> 100 µM,> 100 µM,> 100 µM,> 100 µM
C[C@]12CC[C@H]3[C@@H](C[C@@H]4SC(Nc5cccc(F)c5)=N[C@@]45CC(=O)CC[C@]35C)[C@@H]1CCC2=O,1.54 µM,3.12 µM,1.45 µM,3.25 µM,1.49 µM,3.51 µM,1.9 µM,> 100 µM,1.97 µM,4.15 µM,2.36 µM,6.02 µM,1.99 µM,5.73 µM,1.63 µM,3.06 µM
O=[N+]([O-])c1ccc2nc(N/N=C/c3ccc(O)cc3)sc2c1,4.46 µM,37 µM,10.9 µM,66.9 µM,8.31 µM,28 µM,3.28 µM,> 100 µM,3.97 µM,29.8 µM,4.4 µM,> 100 µM,4.07 µM,81.5 µM,1.49 µM,10.2 µM
C[C@]12CC[C@@H]3c4ccc(O)cc4CC[C@H]3[C@@H]1CC[C@@H]2NS(=O)(=O)c1cccc(Br)c1,3.19 µM,12.9 µM,2.15 µM,6.2 µM,3.76 µM,12.7 µM,3.06 µM,20.3 µM,3.43 µM,12.1 µM,2.25 µM,5.73 µM,2.99 µM,11 µM,2.36 µM,11.4 µM
O=C(Nc1ccc(-n2cc(-c3ccncc3)c(-c3ccc(Cl)c(O)c3)n2)cc1)c1cc(Cl)cc(Cl)c1,2.96 µM,> 28.1 µM,0.291 µM,0.879 µM,2.68 µM,> 23.6 µM,4.25 µM,> 100 µM,> 19.9 µM,> 100 µM,> 100 µM,> 100 µM,2.03 µM,> 24.6 µM,2.31 µM,7.94 µM
Cc1cc(N2CCN(C)CC2)nc(NC2CCCC(Nc3ccnc4cc(Cl)ccc34)C2)n1 (centres undefined),1.8 µM,3.54 µM,1.42 µM,3.17 µM,2.14 µM,6.16 µM,1.78 µM,7.34 µM,1.81 µM,3.63 µM,3.09 µM,12.2 µM,–,–,2.29 µM,5.3 µM
CC1=CC(C)C(O)C(C)/C=C/C(O)C/C=C(/C)C(=O)CC(O)C(C)\C=C/C=C/C=C\C(=O)NC2=C(O)c3cc(C)c(O)c(c3C(=O)C2=O)C1=O (centres undefined),–,> 100 µM,–,–,–,> 100 µM,–,> 100 µM,–,> 100 µM,–,> 100 µM,–,> 100 µM,–,> 100 µM
COc1ccc2cc(C(=O)/C=C/c3ccc(OC)c(OC)c3)ccc2c1,16.2 µM,39.2 µM,–,–,11.9 µM,76.4 µM,–,–,53.1 µM,> 100 µM,13.5 µM,32.6 µM,21 µM,97.6 µM,–,–
C=CC1=C(C)C2=NC1=CC1=NC(=C(CC)/C1=C/O)C=C1C=C3C(=O)C(C(=O)OC)C(=C4NC(=C2)C(C)C4CCC(=O)OC/C=C(\C)CCCC(C)CCCC(C)CCCC(C)C)C3=N1 (centres undefined) (tested in a mixture with another compound),–,> 100 µM,–,–,–,> 100 µM,–,–,–,> 100 µM,–,> 100 µM,–,> 100 µM,–,73 µM
COC(=O)/C(=C/N1CCN(C(=O)c2ccco2)C1=S)C(C)=O,11.5 µM,28.3 µM,4.41 µM,9.49 µM,15.8 µM,46 µM,–,–,3.54 µM,14.9 µM,5.93 µM,22.4 µM,2.82 µM,8.52 µM,–,–
CC(=O)N1c2ccccc2C23CCN4CC5=CCOC(O)C(C5CC42)C13 (centres undefined),–,> 100 µM,–,–,–,> 100 µM,–,> 100 µM,–,> 100 µM,–,> 100 µM,–,> 100 µM,–,> 100 µM
COCCOC(C)C(/C=N/NC(N)=S)=N/NC(N)=S (centres undefined),> 100 µM,> 100 µM,> 100 µM,> 100 µM,–,–,–,–,> 100 µM,> 100 µM,> 100 µM,> 100 µM,> 100 µM,> 100 µM,> 100 µM,> 100 µM
COc1ccc(/C=N/NC(=O)O)cc1,–,> 100 µM,–,> 100 µM,–,> 100 µM,–,–,–,> 100 µM,–,> 100 µM,–,> 100 µM,–,> 100 µM
NC(C(=O)O)C(N)C(=O)O (centres undefined),–,> 100 µM,–,> 100 µM,–,> 100 µM,–,–,–,> 100 µM,–,> 100 µM,–,> 100 µM,–,> 100 µM
N#Cc1c(NC(=O)CCC(=O)O)ccc2ccccc12,–,> 100 µM,–,> 100 µM,–,> 100 µM,–,–,–,> 100 µM,–,> 100 µM,–,> 100 µM,–,> 100 µM

# Reference: PubChem BioAssay (NCI)
